Reference: PMC8196787, “Design and Pharmacodynamics of Recombinant Fungus Defensin NZL with Improved Activity against Staphylococcus hyicus In Vitro and In Vivo” (International Journal of Molecular Sciences, 2021)
Converted amounts (≈) assume the structure as drawn. Positions of bridges follow the written chain, without caps; N, C: chain ends. Residues, ends and D or L forms follow the SMILES beside them.

Legend:
S. hyicus ACCC 61734 = experiment: microbe, parasite or virus in culture; format: cell-based; conditions: S. hyicus ACCC 61734 (clinical strain); microbroth dilution, MHB, 37 °C, 16–20 h, triplicate
Protocol: (§1) The microbroth dilution method was used to evaluate the MIC values of new derivative peptides. […] The MIC value was defined as the lowest concentration where no visible bacteria growth occurred after overnight incubation. CRO was used as the positive control. All assays were conducted in triplicate.

S. aureus ATCC 43300 = experiment: microbe, parasite or virus in culture; format: cell-based; conditions: S. aureus ATCC 43300; microbroth dilution, MHB, 1 × 10^5 CFU/mL, 37 °C, 16–20 h, peptides 1–256 μg/mL, triplicate
Protocol: as §1

[1] = system: isolated S. hyicus (n = 207); conditions: n = 207 isolates, Japan; cited from earlier work
From the text: Staphylococcus hyicus is one of the opportunistic and commensal pathogens which can cause acute infections to animals and humans. It was reported that exfoliative toxins-producing S. hyicus is primarily known as the most common causative agent of exudative epidermitis in pigs, which occurs typically as an acute skin lesions characterized by sebaceous exudation, exfoliation, and vesicle formation. This disease with prominent morbidity and mortality occurs worldwide, resulting in considerable economic losses in the swine industry. To date, piglets infected with S. hyicus are fr ...

Row | Compound | MIC (S. hyicus ACCC 61734) [mg/L] | MIC (S. aureus ATCC 43300) [mg/L] | Isolated S. hyicus resistant to the drug [1] [%]
1 | CC[C@H](C)[C@@H]1NC(=O)[C@H](CO)NC(=O)[C@H](CCCCN)NC(=O)[C@@H]2CSSC[C@@H](C(=O)N[C@@H](Cc3ccc(O)cc3)C(=O)O)NC(=O)[C@H](CCCCN)NC(=O)[C@@H]3CSSC[C@H](NC(=O)[C@H](CCC(N)=O)NC(=O)[C@H](CC(C)C)NC(=O)[C@H](CC(=O)O)NC(=O)[C@H](CC(=O)O)NC(=O)[C@H](CCC(=O)O)NC(=O)[C@H](CO)NC(=O)[C@H](Cc4c[nH]c5ccccc45)NC(=O)[C@@H]4CCCN4C(=O)CNC(=O)[C@H](CC(N)=O)NC(=O)[C@@H](NC(=O)CNC(=O)[C@H](Cc4ccccc4)NC(=O)CN)CSSC[C@H](NC(=O)[C@H](Cc4ccc(O)cc4)NC(=O)CNC(=O)CNC(=O)[C@H](CCCCN)NC(=O)[C@H](Cc4ccc(O)cc4)NC(=O)CNC(=O)[C@H](CCCCN)NC1=O)C(=O)N[C@@H](C)C(=O)N[C@@H](CCCNC(=N)N)C(=O)NCC(=O)NCC(=O)N[C@@H](Cc1ccccc1)C(=O)N[C@@H](C(C)C)C(=O)N3)C(=O)N[C@@H](Cc1c[nH]cn1)C(=O)N[C@@H](CC(N)=O)C(=O)N[C@@H](Cc1c[nH]cn1)C(=O)N2 [Peptide 7] (H-GFGCNGPWSEDDLQCHNHCKSIKGYKGGYCARGGFVCKCY-OH; disulfide 4-30, 15-37, 19-39; N-terminus and C-terminus assumed) | 4 (≈ 0.912 µM) | 2 (≈ 0.456 µM) | 
2 | CC[C@H](C)[C@@H]1NC(=O)[C@H](CO)NC(=O)[C@H](CCCCN)NC(=O)[C@@H]2CSSC[C@@H](C(=O)N[C@@H](Cc3ccc(O)cc3)C(=O)O)NC(=O)[C@H](CCCCN)NC(=O)[C@@H]3CSSC[C@H](NC(=O)[C@H](CCCNC(=N)N)NC(=O)[C@H]([C@@H](C)CC)NC(=O)[C@H](CC(=O)O)NC(=O)[C@H](CC(=O)O)NC(=O)[C@H](CCC(=O)O)NC(=O)[C@H](CO)NC(=O)[C@H](Cc4c[nH]c5ccccc45)NC(=O)[C@@H]4CCCN4C(=O)CNC(=O)[C@H](CC(N)=O)NC(=O)[C@@H](NC(=O)CNC(=O)[C@H](Cc4ccccc4)NC(=O)CN)CSSC[C@H](NC(=O)[C@H](Cc4ccc(O)cc4)NC(=O)CNC(=O)CNC(=O)[C@H](CCCCN)NC(=O)[C@H](Cc4ccc(O)cc4)NC(=O)CNC(=O)[C@H](CCCCN)NC1=O)C(=O)N[C@@H](C)C(=O)N[C@@H](CO)C(=O)N[C@@H](C)C(=O)NCC(=O)N[C@@H](Cc1ccccc1)C(=O)N[C@@H](C(C)C)C(=O)N3)C(=O)N[C@@H](Cc1c[nH]cn1)C(=O)N[C@@H](CC(N)=O)C(=O)N[C@@H](Cc1c[nH]cn1)C(=O)N2 [Peptide 8] (H-GFGCNGPWSEDDIRCHNHCKSIKGYKGGYCASAGFVCKCY-OH; disulfide 4-30, 15-37, 19-39; N-terminus and C-terminus assumed) | 128 (≈ 29.4 µM) | 64 (≈ 14.7 µM) | 
3 | CC[C@H](C)[C@@H]1NC(=O)[C@H](CO)NC(=O)[C@H](CCCCN)NC(=O)[C@@H]2CSSC[C@@H](C(=O)N[C@@H](Cc3ccc(O)cc3)C(=O)O)NC(=O)[C@H](CCCCN)NC(=O)[C@@H]3CSSC[C@H](NC(=O)[C@H](CCCCN)NC(=O)[C@H](CC(C)C)NC(=O)[C@H](CC(=O)O)NC(=O)[C@H](CC(=O)O)NC(=O)[C@H](CCC(=O)O)NC(=O)[C@H](CCC(N)=O)NC(=O)[C@H](Cc4c[nH]c5ccccc45)NC(=O)[C@@H]4CCCN4C(=O)CNC(=O)[C@H](CC(N)=O)NC(=O)[C@@H](NC(=O)CNC(=O)[C@H](Cc4ccccc4)NC(=O)CN)CSSC[C@H](NC(=O)[C@H](Cc4ccc(O)cc4)NC(=O)CNC(=O)CNC(=O)[C@H](CCCCN)NC(=O)[C@H](Cc4ccc(O)cc4)NC(=O)CNC(=O)[C@H](CCCCN)NC1=O)C(=O)N[C@@H](C)C(=O)N[C@@H](CO)C(=O)N[C@@H](C)C(=O)NCC(=O)N[C@@H](Cc1ccccc1)C(=O)N[C@@H](C(C)C)C(=O)N3)C(=O)N[C@@H](Cc1c[nH]cn1)C(=O)N[C@@H](CC(N)=O)C(=O)N[C@@H](Cc1c[nH]cn1)C(=O)N2 [Peptide 9] (H-GFGCNGPWQEDDLKCHNHCKSIKGYKGGYCASAGFVCKCY-OH; disulfide 4-30, 15-37, 19-39; N-terminus and C-terminus assumed) | 8 (≈ 1.83 µM) | 4 (≈ 0.915 µM) | 
4 | CC[C@H](C)[C@@H]1NC(=O)[C@H](CO)NC(=O)[C@H](CCCCN)NC(=O)[C@@H]2CSSC[C@@H](C(=O)N[C@@H](Cc3ccc(O)cc3)C(=O)O)NC(=O)[C@H](CCCCN)NC(=O)[C@@H]3CSSC[C@H](NC(=O)[C@H](CCC(N)=O)NC(=O)[C@H]([C@@H](C)CC)NC(=O)[C@H](CC(=O)O)NC(=O)[C@H](CC(=O)O)NC(=O)[C@H](CCC(=O)O)NC(=O)[C@H]([C@@H](C)O)NC(=O)[C@H](Cc4c[nH]c5ccccc45)NC(=O)[C@@H]4CCCN4C(=O)CNC(=O)[C@H](CC(N)=O)NC(=O)[C@@H](NC(=O)CNC(=O)[C@H](Cc4ccccc4)NC(=O)CN)CSSC[C@H](NC(=O)[C@H](Cc4ccc(O)cc4)NC(=O)CNC(=O)CNC(=O)[C@H](CCCCN)NC(=O)[C@H](Cc4ccc(O)cc4)NC(=O)CNC(=O)[C@H](CCCCN)NC1=O)C(=O)N[C@@H](C)C(=O)N[C@@H](CCCNC(=N)N)C(=O)NCC(=O)NCC(=O)N[C@@H](Cc1ccccc1)C(=O)N[C@@H](C(C)C)C(=O)N3)C(=O)N[C@@H](Cc1c[nH]cn1)C(=O)N[C@@H](CC(N)=O)C(=O)N[C@@H](Cc1c[nH]cn1)C(=O)N2 [Peptide 10] (H-GFGCNGPWTEDDIQCHNHCKSIKGYKGGYCARGGFVCKCY-OH; disulfide 4-30, 15-37, 19-39; N-terminus and C-terminus assumed) | >128 | >128 | 
5 | CC1(C)S[C@@H]2[C@H](NC(=O)[C@H](N)c3ccccc3)C(=O)N2[C@H]1C(=O)O [ampicillin] |  |  | 76.8
6 | O=C(N[C@H](CO)[C@H](O)c1ccc([N+](=O)[O-])cc1)C(Cl)Cl [chloramphenicol] |  |  | 24.2
7 | C[C@H]1c2cccc(O)c2C(=O)C2=C(O)[C@]3(O)C(=O)C(C(N)=O)=C(O)[C@@H](N(C)C)[C@@H]3[C@@H](O)[C@@H]21 [doxycycline] |  |  | 1.4
8 | CC[C@H]1OC(=O)[C@H](C)[C@@H](O[C@H]2C[C@@](C)(OC)[C@@H](O)[C@H](C)O2)[C@H](C)[C@@H](O[C@@H]2O[C@H](C)C[C@H](N(C)C)[C@H]2O)[C@](C)(O)C[C@@H](C)C(=O)[C@H](C)[C@@H](O)[C@]1(C)O [erythromycin] |  |  | 56
9 | NC[C@H]1O[C@H](O[C@H]2[C@H](O)[C@@H](O[C@H]3O[C@H](CO)[C@@H](O)[C@H](N)[C@H]3O)[C@H](N)C[C@@H]2N)[C@H](O)[C@@H](O)[C@@H]1O [kanamycin] |  |  | 19.8
10 | penicillin |  |  | 76.8
